# Measurements: ChEMBL document CHEMBL1201862, “PubChem BioAssay data set” (2004)
#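 Growth conditions: 96-well plates. Treatment: test compound, 48 hours, 5 concentrations. Analysis: linear interpolation between bracketing concentrations; unreached endpoints set to highest concentration. Abbreviation: GI50, concentration required for 50% inhibition of growth.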 Active and inactive are the calls of the source. Rule as the data show it: active = GI50 up to about 1.1 µM and inactive = higher.
# Experiments:
# Assay in all cases: NCI anticancer screen, dose series, 48 h
# PC-3 = tested on: PC-3
# BT-549 = tested on: BT-549
# M14 = tested on: M14
# CAKI-1 = tested on: CAKI-1
# HOP-92 = tested on: HOP-92
# SNB-75 = tested on: SNB-75
# RPMI-8226 = tested on: RPMI-8226
# NCI/ADR-RES = tested on: NCI/ADR-RES
# OVCAR-5 = tested on: OVCAR-5
# OVCAR-4 = tested on: OVCAR-4
# HCT-15 = tested on: HCT-15
# SR = tested on: SR
# HL-60 = tested on: HL-60
# NCI-H522 = tested on: NCI-H522
# SK-MEL-28 = tested on: SK-MEL-28
# MCF7 = tested on: MCF7
# HCC 2998 = tested on: HCC 2998
# XF498 = tested on: XF498
# NCI-H226 = tested on: NCI-H226
# HOP-18 = tested on: HOP-18
SMILES,GI50 (PC-3),GI50 (BT-549),GI50 (M14),GI50 (CAKI-1),GI50 (HOP-92),GI50 (SNB-75),GI50 (RPMI-8226),GI50 (NCI/ADR-RES),GI50 (OVCAR-5),GI50 (OVCAR-4),GI50 (HCT-15) [µM],GI50 (SR),GI50 (HL-60),GI50 (NCI-H522),GI50 (SK-MEL-28),GI50 (MCF7),GI50 (HCC 2998),GI50 (XF498),GI50 (NCI-H226),GI50 (HOP-18)
CCOC(=O)C(NC(C)=O)(Nc1ccc(F)cc1)C(F)(F)F (configuration not stated),> 100 µM (inactive),> 100 µM (inactive),20.2 µM (inactive),> 100 µM (inactive),> 100 µM (inactive),> 100 µM (inactive),72.1 µM (inactive),8.13 µM (inactive),47 µM (inactive),88.1 µM (inactive),0.49,24.8 µM (inactive),4.79 µM (inactive),> 100 µM (inactive),> 100 µM (inactive),28.2 µM (inactive),5.18 µM (inactive),,,
C=CCn1c2ccccc2c2c(C)c3cnccc3c(C)c21,,,,2.06 µM (inactive),1.92 µM (inactive),13.2 µM (inactive),3.61 µM (inactive),4.91 µM (inactive),6.38 µM (inactive),8.97 µM (inactive),6.92,,3.17 µM (inactive),5.52 µM (inactive),14.8 µM (inactive),5.52 µM (inactive),20.4 µM (inactive),12.4 µM (inactive),5.16 µM (inactive),> 125 µM (inactive)
Cn1cnc(/C=C/C#N)c1,> 100 µM (inactive),> 100 µM (inactive),> 100 µM (inactive),> 100 µM (inactive),> 100 µM (inactive),> 100 µM (inactive),,> 100 µM (inactive),> 100 µM (inactive),> 100 µM (inactive),> 100,> 100 µM (inactive),,> 100 µM (inactive),> 100 µM (inactive),> 100 µM (inactive),> 100 µM (inactive),,76.7 µM (inactive),
O=C1C(Cl)N(c2ccc(Cl)cc2Cl)C1c1c[nH]c2ccccc12 (configuration not stated),,,> 100 µM (inactive),,44.5 µM (inactive),6.49 µM (inactive),> 100 µM (inactive),,,> 100 µM (inactive),,59.8 µM (inactive),> 100 µM (inactive),> 100 µM (inactive),> 100 µM (inactive),,,> 100 µM (inactive),,
C=CC12CN(C)C3C4COC(CC41)C1(C(=O)Nc4ccccc41)C32 (configuration not stated),,,,> 200 µM (inactive),> 140 µM (inactive),146 µM (inactive),> 195 µM (inactive),> 165 µM (inactive),> 200 µM (inactive),> 200 µM (inactive),> 195,,152 µM (inactive),44.7 µM (inactive),175 µM (inactive),> 200 µM (inactive),> 151 µM (inactive),21.5 µM (inactive),6.67 µM (inactive),> 200 µM (inactive)
O=C(O)CN(CC(=O)O)C1CCCCC1N(CC(=O)O)CC(=O)NCCN=C=S (configuration not stated),> 100 µM (inactive),> 100 µM (inactive),> 100 µM (inactive),> 100 µM (inactive),> 100 µM (inactive),,> 100 µM (inactive),> 100 µM (inactive),> 100 µM (inactive),,> 100,,> 100 µM (inactive),> 100 µM (inactive),> 100 µM (inactive),> 100 µM (inactive),> 100 µM (inactive),,> 100 µM (inactive),
CC(C)(C)C1(c2ccc(C3(c4ccccc4)Oc4ccccc4S3)[nH]2)Oc2ccccc2S1 (configuration not stated),,,> 100 µM (inactive),> 100 µM (inactive),26.8 µM (inactive),,96.2 µM (inactive),,> 100 µM (inactive),,> 100,,> 100 µM (inactive),> 100 µM (inactive),,,> 100 µM (inactive),32.5 µM (inactive),55 µM (inactive),> 100 µM (inactive)
CCOC(=O)/C(=N/Nc1ccc(C)cc1)N1C(=S)N(C)N=C(C)C=C1S,,23.1 µM (inactive),> 100 µM (inactive),77.1 µM (inactive),49.5 µM (inactive),29.3 µM (inactive),> 100 µM (inactive),> 100 µM (inactive),> 100 µM (inactive),> 100 µM (inactive),> 100,> 100 µM (inactive),> 100 µM (inactive),> 100 µM (inactive),> 100 µM (inactive),> 100 µM (inactive),> 100 µM (inactive),,,
COc1cc2c(cc1OC)C1Cc3sccc3CN1CC2 (configuration not stated),,,72.4 µM (inactive),> 100 µM (inactive),76.2 µM (inactive),> 100 µM (inactive),> 100 µM (inactive),,> 100 µM (inactive),> 100 µM (inactive),> 100,88.9 µM (inactive),> 100 µM (inactive),> 100 µM (inactive),,,> 100 µM (inactive),> 100 µM (inactive),> 100 µM (inactive),> 100 µM (inactive)
COc1cc(-c2ccc(/N=N/c3ccc4c(S(=O)(=O)O)cc(S(=O)(=O)O)c(N)c4c3O)c(OC)c2)ccc1/N=N/c1ccc2c(S(=O)(=O)O)cc(S(=O)(=O)O)c(N)c2c1O,,,,,> 100 µM (inactive),> 100 µM (inactive),> 100 µM (inactive),> 100 µM (inactive),> 91.2 µM (inactive),> 100 µM (inactive),> 100,,> 41.6 µM (inactive),> 100 µM (inactive),> 100 µM (inactive),> 100 µM (inactive),> 100 µM (inactive),36.1 µM (inactive),> 87.5 µM (inactive),> 44.3 µM (inactive)
NC(=O)CCC(N=C(N)c1csc(C2OC(CO)C(O)C2O)n1)C(=O)O (configuration not stated),,,> 100 µM (inactive),> 100 µM (inactive),,> 100 µM (inactive),> 100 µM (inactive),,> 100 µM (inactive),> 100 µM (inactive),> 100,,> 100 µM (inactive),> 100 µM (inactive),> 100 µM (inactive),,> 100 µM (inactive),> 100 µM (inactive),,< 0.01 µM (active)
O=c1c(Cc2ccc(Cc3c(O)oc4ccccc4c3=O)cc2)c(O)oc2ccccc12,> 100 µM (inactive),> 100 µM (inactive),> 100 µM (inactive),> 100 µM (inactive),> 100 µM (inactive),> 100 µM (inactive),,> 100 µM (inactive),> 100 µM (inactive),> 100 µM (inactive),> 100,> 100 µM (inactive),> 100 µM (inactive),,> 100 µM (inactive),> 100 µM (inactive),> 100 µM (inactive),,> 100 µM (inactive),
